# Target: T1, CsOxOx (Ceriporiopsis subvermispora bicupin oxalate oxidase, isoform-G) (Gelatoporia subvermispora, UniProt Q5ZH56)
# T1 sequence (Q5ZH56 21-461): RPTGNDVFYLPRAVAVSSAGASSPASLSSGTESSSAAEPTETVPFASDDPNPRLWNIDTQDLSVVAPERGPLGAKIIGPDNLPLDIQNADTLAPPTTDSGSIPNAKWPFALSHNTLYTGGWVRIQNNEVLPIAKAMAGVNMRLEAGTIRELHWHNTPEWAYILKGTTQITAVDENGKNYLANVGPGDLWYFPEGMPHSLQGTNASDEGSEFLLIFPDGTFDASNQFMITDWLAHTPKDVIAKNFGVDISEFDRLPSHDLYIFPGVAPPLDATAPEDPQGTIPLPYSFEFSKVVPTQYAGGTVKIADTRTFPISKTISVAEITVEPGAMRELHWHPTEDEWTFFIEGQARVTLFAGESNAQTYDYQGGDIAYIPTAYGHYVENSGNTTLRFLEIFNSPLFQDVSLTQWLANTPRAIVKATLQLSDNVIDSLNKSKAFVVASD
# Experiment: continuous coupled HRP/ABTS assay of H2O2 production, […] nm
# Format: biochemical
row,SMILES,Ki [mM]
1,O=C(O)CO [glycolate],28 ± 5
2,CC(=O)C(=O)O [pyruvate],17 ± 3
3,O=C(O)C[C@H](O)C(=O)O [malate],52 ± 6

# Now those with a lower Ki, led by results:
row,Ki [mM],SMILES
1,3.9 ± 0.6,CC(=O)O [acetate]
2,15 ± 3,O=CC(=O)O [glyoxylate]
3,3 ± 0.3,O=C(O)CC(=O)O [malonate]

# Source: paper PMC3078958 (Archives of biochemistry and biophysics, 2011)
